From patent publication US8901118B2, “Compounds and methods for kinase modulation, and indications therefor” (Plexxikon Inc., priority 2010, dated 2014)

Legend:
TrkA kinase = TrkA kinase (Homo sapiens, UniProt P04629); assay: TrkA kinase biochemical activity assay (AlphaScreen); conditions: 100 μM ATP; read-out: Biochemical Inhibition IC50 TrkA
Method in brief: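 Recombinant TrkA with 30 nM biotin-(E4Y)10 and 100 μM ATP in 25 mM Hepes pH 7.5, 10 mM MnCl2, 5% DMSO, 40 min at room temperature. Phosphorylation read by AlphaScreen (streptavidin donor, PY20 acceptor beads); IC50 from signal vs compound concentration. TrkC run similarly.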

BCR-FMS BaF3 cells = target: T1, BCR-FMS BaF3 cells (Homo sapiens, UniProt P07333); assay: BaF3 BCR-FMS cell proliferation assay (ATPlite); assay type: cell-based; conditions: read-out: Inhibition of Cell Proliferation IC50, BCR/BaF3 Fms
T1 construct: fused on or other part: P11274 (Breakpoint cluster region protein)
T1 sequence (P07333 582-910): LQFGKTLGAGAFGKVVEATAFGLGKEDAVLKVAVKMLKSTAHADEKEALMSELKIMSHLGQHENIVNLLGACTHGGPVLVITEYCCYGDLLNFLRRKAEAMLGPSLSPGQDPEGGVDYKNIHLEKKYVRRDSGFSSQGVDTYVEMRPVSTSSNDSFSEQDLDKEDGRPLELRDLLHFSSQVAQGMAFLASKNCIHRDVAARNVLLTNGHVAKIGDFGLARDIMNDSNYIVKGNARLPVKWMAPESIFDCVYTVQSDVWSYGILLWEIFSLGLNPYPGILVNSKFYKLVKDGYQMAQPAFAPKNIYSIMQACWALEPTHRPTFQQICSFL
Method in brief: (§1)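 ATP-based luminescence (ATPlite), read after 10 min at room temperature, served as a proxy for cell number, and IC50 was fitted against compound concentration. Before that, cells were treated for 3 days with an 8-point 1:3 dilution series starting at 10 μM. BaF3 cells were plated at 10,000/well without IL-3, and MV-4-11 cells at 25,000/well.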

BCR-NTRK3 BaF3 cells = target: T2, BCR-NTRK3 BaF3 cells (Homo sapiens, UniProt Q16288); assay: BaF3 BCR-NTRK3 cell proliferation assay (ATPlite); assay type: cell-based; conditions: read-out: Inhibition of Cell Proliferation IC50, BCR/BaF3 TrkC
T2 construct: fused on or other part: P11274 (Breakpoint cluster region protein)
Method in brief: as §1

SKNSH cells = assay: SKNSH (human neuroblastoma) cell proliferation assay (ATPlite); assay type: cell-based; conditions: SK-N-SH, read-out: Inhibition of Cell Proliferation IC50, SKNSH
Method in brief: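 SK-N-SH human neuroblastoma cells grown in RPMI with 10% FBS were pelleted, resuspended at 2×10^4 cells/mL, and plated at 3,000 cells per well (150 μL) in 96-well plates, then kept overnight at 37° C. in 5% CO2. Compounds in an 8-point 1:3 DMSO series were added as 0.75 μL aliquots.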

T2 sequence (Q16288 whole entry, the tested form may be a part): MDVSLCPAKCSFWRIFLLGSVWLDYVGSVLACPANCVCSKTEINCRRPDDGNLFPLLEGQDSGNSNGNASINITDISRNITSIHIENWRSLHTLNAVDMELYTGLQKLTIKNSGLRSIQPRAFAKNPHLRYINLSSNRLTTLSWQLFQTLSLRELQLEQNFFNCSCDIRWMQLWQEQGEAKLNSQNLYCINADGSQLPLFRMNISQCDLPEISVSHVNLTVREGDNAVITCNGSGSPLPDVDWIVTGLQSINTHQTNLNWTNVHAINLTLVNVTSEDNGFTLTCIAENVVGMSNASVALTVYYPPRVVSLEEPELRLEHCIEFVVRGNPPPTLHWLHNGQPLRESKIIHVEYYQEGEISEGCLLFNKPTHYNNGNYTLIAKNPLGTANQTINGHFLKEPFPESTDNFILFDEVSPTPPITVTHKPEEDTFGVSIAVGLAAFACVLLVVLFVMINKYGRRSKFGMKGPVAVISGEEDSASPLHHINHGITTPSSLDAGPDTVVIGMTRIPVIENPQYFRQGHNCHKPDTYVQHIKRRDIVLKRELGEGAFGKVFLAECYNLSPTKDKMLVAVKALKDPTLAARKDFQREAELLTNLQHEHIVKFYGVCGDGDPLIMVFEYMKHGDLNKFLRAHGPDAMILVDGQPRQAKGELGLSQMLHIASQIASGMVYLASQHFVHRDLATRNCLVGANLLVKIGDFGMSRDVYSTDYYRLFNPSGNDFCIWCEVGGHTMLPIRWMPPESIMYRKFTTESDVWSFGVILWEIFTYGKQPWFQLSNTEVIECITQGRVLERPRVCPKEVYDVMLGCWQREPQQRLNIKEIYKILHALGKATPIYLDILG
Chain of TrkA kinase (P04629 33-796): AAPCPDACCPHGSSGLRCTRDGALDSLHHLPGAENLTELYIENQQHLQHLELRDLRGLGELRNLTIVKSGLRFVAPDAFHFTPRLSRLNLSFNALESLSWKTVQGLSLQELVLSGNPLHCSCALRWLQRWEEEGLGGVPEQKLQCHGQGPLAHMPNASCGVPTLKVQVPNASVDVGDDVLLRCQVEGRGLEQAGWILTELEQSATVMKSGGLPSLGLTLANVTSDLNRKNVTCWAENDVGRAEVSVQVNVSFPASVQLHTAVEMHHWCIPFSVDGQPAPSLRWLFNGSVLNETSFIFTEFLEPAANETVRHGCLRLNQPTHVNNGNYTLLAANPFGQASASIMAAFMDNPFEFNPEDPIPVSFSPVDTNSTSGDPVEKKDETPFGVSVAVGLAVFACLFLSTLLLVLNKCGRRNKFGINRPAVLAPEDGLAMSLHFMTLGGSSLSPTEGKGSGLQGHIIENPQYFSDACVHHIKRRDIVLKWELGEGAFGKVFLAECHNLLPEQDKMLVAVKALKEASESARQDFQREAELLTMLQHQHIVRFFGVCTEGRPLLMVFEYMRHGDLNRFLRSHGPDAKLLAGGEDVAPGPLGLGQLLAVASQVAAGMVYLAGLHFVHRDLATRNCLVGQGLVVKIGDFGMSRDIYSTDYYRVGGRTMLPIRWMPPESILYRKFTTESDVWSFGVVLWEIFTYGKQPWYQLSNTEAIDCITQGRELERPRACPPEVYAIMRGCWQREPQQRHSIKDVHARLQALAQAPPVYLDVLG

SMILES	IC50 (TrkA kinase) [nM]	IC50 (BCR-FMS BaF3 cells) [nM]	IC50 (BCR-NTRK3 BaF3 cells) [nM]	IC50 (SKNSH cells) [nM]
COc1ncnc2[nH]cc(Cc3ccc(Nc4ccc(C)nc4)nc3F)c12 [Compound P-4010, [6-Fluoro-5-(4-methoxy-7H-pyrrolo[2,3-d]pyrimidin-5-ylmethyl)-pyridin-2-yl]-(6-methyl-pyridin-3-yl)-amine]	< 1000	< 10	< 100	< 1000
CCn1cc(Nc2ccc(Cc3c[nH]c4ncnc(OC)c34)c(F)n2)cn1 [Compound P-4011, (1-Ethyl-1H-pyrazol-4-yl)-[6-fluoro-5-(4-methoxy-7H-pyrrolo[2,3-d]pyrimidin-5-ylmethyl)-pyridin-2-yl]-amine]	< 1000	< 10	< 1000	> 1000
CCn1cc(Nc2ccc(Cc3c[nH]c4ncnc(C)c34)c(F)n2)cn1 [Compound P-4013, (1-Ethyl-1H-pyrazol-4-yl)-[6-fluoro-5-(4-methyl-7H-pyrrolo[2,3-d]pyrimidin-5-ylmethyl)-pyridin-2-yl]-amine]	< 1000	< 10	< 1000	> 1000
CCn1cc(Nc2ccc(Cc3c[nH]c4ncnc(OCCOC)c34)c(F)n2)cn1 [Compound P-4014, (1-Ethyl-1H-pyrazol-4-yl)-{6-fluoro-5-[4-(2-methoxy-ethoxy)-7H-pyrrolo[2,3-d]pyrimidin-5-ylmethyl]-pyridin-2-yl}-amine]	> 1000	< 100	< 1000	> 10000
COCCOc1ncnc2[nH]cc(Cc3ccc(Nc4ccc(C)nc4)nc3F)c12 [Compound P-4015, {6-Fluoro-5-[4-(2-methoxy-ethoxy)-7H-pyrrolo[2,3-d]pyrimidin-5-ylmethyl]-pyridin-2-yl}-(6-methyl-pyridin-3-yl)-amine]	> 1000	< 10	< 100	> 1000
CCOc1ncnc2[nH]cc(Cc3ccc(Nc4cccnc4)nc3F)c12 [Compound P-4021, [5-(4-Ethoxy-7H-pyrrolo[2,3-d]pyrimidin-5-ylmethyl)-6-fluoro-pyridin-2-yl]-pyridin-3-yl-amine]	< 1000	< 1000	< 1000	< 1000
CCOc1ccc(Nc2ccc(C(=O)c3c[nH]c4ncnc(OC)c34)c(F)n2)cn1 [Compound P-4024, [6-(6-Ethoxy-pyridin-3-ylamino)-2-fluoro-pyridin-3-yl]-(4-methoxy-7H-pyrrolo[2,3-d]pyrimidin-5-yl)-methanone]	< 100	< 100	< 100	> 1000
CCOc1ncnc2[nH]cc(C(=O)c3ccc(Nc4ccc(OC)nc4)nc3F)c12 [Compound P-4025, (4-Ethoxy-7H-pyrrolo[2,3-d]pyrimidin-5-yl)-[2-fluoro-6-(6-methoxy-pyridin-3-ylamino)-pyridin-3-yl]-methanone]	< 100	< 100	< 100	> 1000
Fc1nc(NC2CCC(F)(F)CC2)ccc1Cc1c[nH]c2ncnc(NCC(F)(F)F)c12 [Compound P-4128, 5-[[6-[(4,4-difluorocyclohexyl)amino]-2-fluoro-3-pyridyl]methyl]-N-(2,2,2-trifluoroethyl)-7H-pyrrolo[2,3-d]pyrimidin-4-amine]	< 1000	< 100	< 100	> 1000
Fc1nc(NC2CCC(F)(F)CC2)ccc1Cc1c[nH]c2ncnc(NC3CC3)c12 [Compound P-4129, N-cyclopropyl-5-[[6-[(4,4-difluorocyclohexyl)amino]-2-fluoro-3-pyridyl]methyl]-7H-pyrrolo[2,3-d]pyrimidin-4-amine]	< 1000	< 100	< 100	> 10000

Next, values leading:

IC50 (TrkA kinase) [nM]	IC50 (BCR-FMS BaF3 cells) [nM]	IC50 (BCR-NTRK3 BaF3 cells) [nM]	IC50 (SKNSH cells) [nM]	SMILES
< 10	< 10	< 100	> 1000	CCOc1ccc(Nc2ccc(Cc3c[nH]c4ncnc(OCCOC)c34)c(F)n2)cn1 [Compound P-4008, (6-Ethoxy-pyridin-3-yl)-{6-fluoro-5-[4-(2-methoxy-ethoxy)-7H-pyrrolo[2,3-d]pyrimidin-5-ylmethyl]-pyridin-2-yl}-amine]
< 10	< 10	< 10	< 100	CCc1ccc(Nc2ccc(Cc3c[nH]c4ncnc(C)c34)c(F)n2)cn1 [Compound P-4009, (6-Ethyl-pyridin-3-yl)-[6-fluoro-5-(4-methyl-7H-pyrrolo[2,3-d]pyrimidin-5-ylmethyl)-pyridin-2-yl]-amine]
< 100	< 10	< 100	> 1000	CCOc1ncnc2[nH]cc(Cc3ccc(Nc4cnn(CC)c4)nc3F)c12 [Compound P-4012, [5-(4-Ethoxy-7H-pyrrolo[2,3-d]pyrimidin-5-ylmethyl)-6-fluoro-pyridin-2-yl]-(1-ethyl-1H-pyrazol-4-yl)-amine]
< 10	< 10	< 10	> 1000	CCc1ccc(Nc2ccc(Cc3c[nH]c4ncnc(OCCOC)c34)c(F)n2)cn1 [Compound P-4016, (6-Ethyl-pyridin-3-yl)-{6-fluoro-5-[4-(2-methoxy-ethoxy)-7H-pyrrolo[2,3-d]pyrimidin-5-ylmethyl]-pyridin-2-yl}-amine]
< 100	< 10	< 100	< 1000	CCOc1ncnc2[nH]cc(Cc3ccc(Nc4ccc(C)nc4)nc3F)c12 [Compound P-4017, [5-(4-Ethoxy-7H-pyrrolo[2,3-d]pyrimidin-5-ylmethyl)-6-fluoro-pyridin-2-yl]-(6-methyl-pyridin-3-yl)-amine]
< 100	< 10	< 10	< 1000	CCOc1ncnc2[nH]cc(Cc3ccc(Nc4ccc(OC)nc4)nc3F)c12 [Compound P-4018, [5-(4-Ethoxy-7H-pyrrolo[2,3-d]pyrimidin-5-ylmethyl)-6-fluoro-pyridin-2-yl]-(6-methoxy-pyridin-3-yl)-amine]
< 100	< 10	< 100	> 1000	COCCOc1ncnc2[nH]cc(Cc3ccc(Nc4ccc(OC)nc4)nc3F)c12 [Compound P-4019, {6-Fluoro-5-[4-(2-methoxy-ethoxy)-7H-pyrrolo[2,3-d]pyrimidin-5-ylmethyl]-pyridin-2-yl}-(6-methoxy-pyridin-3-yl)-amine]
< 10	< 100	< 100	< 1000	CCOc1ncnc2[nH]cc(Cc3ccc(Nc4ccc(Br)nc4)nc3F)c12 [Compound P-4020, (6-Bromo-pyridin-3-yl)-[5-(4-ethoxy-7H-pyrrolo[2,3-d]pyrimidin-5-ylmethyl)-6-fluoro-pyridin-2-yl]-amine]
< 10	< 100	< 10	< 1000	COc1ccc(Nc2ccc(C(=O)c3c[nH]c4ncnc(C5CC5)c34)c(F)n2)cn1 [Compound P-4022, (4-cyclopropyl-7H-pyrrolo[2,3-d]pyrimidin-5-yl)-[2-fluoro-6-(6-methoxy-pyridin-3-ylamino)-pyridin-3-yl]-methanone]
< 100	< 10	< 10	< 1000	COc1ccc(Nc2ccc(Cc3c[nH]c4ncnc(C5CC5)c34)c(F)n2)cn1 [Compound P-4023, [5-(4-cyclopropyl-7H-pyrrolo[2,3-d]pyrimidin-5-ylmethyl)-6-fluoro-pyridin-2-yl]-(6-methoxy-pyridin-3-yl)-amine]
< 10	< 10	< 10	< 10000	Fc1nc(Nc2ccc(C3CC3)nc2)ccc1Cc1c[nH]c2ncnc(NCC(F)(F)F)c12 [Compound P-4130, 5-[[6-[(6-cyclopropyl-3-pyridyl)amino]-2-fluoro-3-pyridyl]methyl]-N-(2,2,2-trifluoroethyl)-7H-pyrrolo[2,3-d]pyrimidin-4-amine]
